Measured values from paper PMC8611673 (JACS Au, 2021).

Tested on: HeLa 654 cells
Assay: EGFP assay with chemical endocytosis inhibitors
Assay type: cell-based, human
Conditions: higher concentrations of the inhibitor

Row | SMILES | toxicity of the inhibitor to HeLa 654 cells
1 | C=C1[C@@H](C)[C@H]2[C@H](Cc3ccccc3)NC(=O)[C@]23[C@H](OC(C)=O)/C=C/[C@@](C)(O)C(=O)[C@@H](C)C/C=C/[C@H]3[C@@H]1O [cytochalasin D] | appeared to be toxic
2 | COC[C@H]1OC(=O)c2coc3c2[C@@]1(C)C1=C(C3=O)[C@@H]2CCC(=O)[C@@]2(C)C[C@H]1OC(C)=O [wortmannin] | appeared to be toxic
